Reference: ChEMBL document CHEMBL1121621, “Synthesis and antiarrhythmic activity of alpha, alpha-bis[(dialkylamino)alkyl]phenylacetamides” (J Med Chem, 1980)
Calls of active or inactive are those of the source. The rule behind the calls is not given here.

Legend:
Canis familiaris [1] = test: Compound was evaluated for duration of action after oral administration at a dose 25 mg/kg to dog.; assay type: functional, Canis lupus familiaris
Canis familiaris [2] = test: Activity duration index was evaluated in mixed-breed or Beagle dogs after intravenous administration.; assay type: functional, Canis lupus familiaris
Canis familiaris [3] = test: Minimum effective dose evaluated in mixed-breed or Beagle dogs after intravenous administration; assay type: functional; settings: Canis lupus familiaris, read-out: MED
Canis familiaris [4] = test: Compound was evaluated for maximum reduction of ectopic beats after oral administration at a dose 25 mg/kg to dog.; assay type: functional, Canis lupus familiaris, Heart
Canis familiaris [5] = test: Antiarrhythmic activity was evaluated in mixed-breed or Beagle dogs after intravenous administration.; assay type: functional, Canis lupus familiaris, Heart
Canis familiaris [6] = test: Compound was evaluated for onset of action after oral administration at a dose 25 mg/kg to dog.; assay type: functional, Canis lupus familiaris
[7] = Therapeutic ratio in mixed-breed or Beagle dogs after intravenous administration of the compound.; assay type: ADME, Canis lupus familiaris; settings: dog, in vivo, read-out: TR
[8] = Therapeutic ratio was evaluated in mixed-breed or Beagle dogs after intravenous administration of the compound; assay type: ADME, Canis lupus familiaris; settings: dog, in vivo, read-out: TR
Canis familiaris [9] = test: Compound was evaluated for maximum reduction of ectopic beats after oral administration at a dose 25 mg/kg to dog; IA means inactive; assay type: functional, organism-based; design: dose 25 mg/kg; settings: Canis lupus familiaris; Heart
Canis familiaris [10] = test: Compound was evaluated for duration of action after oral administration at a dose 15 mg/kg to dog.; assay type: functional, Canis lupus familiaris
Canis familiaris [11] = test: Compound was evaluated for onset of action after oral administration at a dose 15 mg/kg to dog.; assay type: functional, Canis lupus familiaris
Canis familiaris [12] = test: Compound was evaluated for maximum reduction of ectopic beats after oral administration at a dose 15 mg/kg to dog.; assay type: functional, Canis lupus familiaris, Heart
Canis familiaris [13] = test: Compound was evaluated for duration of action after oral administration at a dose 12 mg/kg to dog.; assay type: functional, Canis lupus familiaris
Canis familiaris [14] = test: Compound was evaluated for maximum reduction of ectopic beats after oral administration at a dose 12 mg/kg to dog.; assay type: functional, Canis lupus familiaris, Heart
Canis familiaris [15] = test: Compound was evaluated for onset of action after oral administration at a dose 12 mg/kg to dog.; assay type: functional, Canis lupus familiaris
Canis familiaris [16] = test: Minimum effective dose was evaluated in mixed-breed or Beagle dogs after intravenous administration of the compound; assay type: functional; settings: Canis lupus familiaris, read-out: MED
Canis familiaris [17] = test: Compound was evaluated for maximum reduction of ectopic beats after oral administration at a dose 15 mg/kg to dog; IA means inactive; assay type: functional, organism-based; design: dose 15 mg/kg; settings: Canis lupus familiaris; Heart
Canis familiaris [18] = test: Compound was evaluated for maximum reduction of ectopic beats after oral administration at a dose 25 mg/kg to dog; L means lethal; assay type: functional, organism-based; design: dose 25 mg/kg; settings: Canis lupus familiaris; Heart

Compound | Duration (Canis familiaris [1]) [min] | ADI (Canis familiaris [2]) | minimal effective dose (Canis familiaris [3]) [mg/kg] | Reduction (Canis familiaris [4]) [%] | AR (Canis familiaris [5]) | Onset of action (Canis familiaris [6]) [min] | selectivity ratio [7] | also measured
CC(C)N(CCC(CCN1CCCCC1)(C(N)=O)c1ccccc1)C(C)C (configuration not stated) | >300 | 0.45 | 5.5 | 97 | 6.1 | 169 | 8.2 | 
CC(C)N(CCC(CCN(C(C)C)C(C)C)(C(N)=O)c1ccc(C(C)(C)C)cc1)C(C)C |  | 1.35 | 2 |  |  |  |  | selectivity ratio [8]: 4.9
CC(C)N(CCC(CCN1CC2CCC(CC2)C1)(C(N)=O)c1ccccc1)C(C)C (configuration not stated) |  | 0.96 | 2.5 |  | 7 |  | 12.5 | Reduction (Canis familiaris [9]): inactive
CC(C)N(CCC(CCN(C)C1CCCCC1)(C(N)=O)c1ccccc1)C(C)C (configuration not stated) |  | 1.36 | 2.7 |  | 7.1 |  | 4.1 | Duration (Canis familiaris [10]): 30 min; Onset of action (Canis familiaris [11]): 300 min; Reduction (Canis familiaris [12]): 69%
CC(C)N(CCC(CCN(C)C)(C(N)=O)c1ccccc1)C(C)C (configuration not stated) | 200 | 0.4 | 12 | 100 | 2.6 | 131 | > 7.5 | 
CC(C)N(CCC(CCN1CCCCC1)(C(N)=O)c1ccccc1F)C(C)C (configuration not stated) | 300 | 1.47 | 1.8 | 100 | 6 | 45 | 18 | Duration (Canis familiaris [13]): 90 min; Reduction (Canis familiaris [14]): 67%; Onset of action (Canis familiaris [15]): 90 min
CC(C)N(CCC(CCN(C)C1CCCCC1)(C(N)=O)c1ccccc1F)C(C)C (configuration not stated) | 150 | 0.98 | 1.5 | 67 | 6 | 203 | 12.7 | 
CC(C)N(CCC(CCN(C(C)C)C(C)C)(C(N)=O)c1ccc(Cl)cc1)C(C)C | >330 | 0.86 | 3 | 100 | 6.6 | 30 | 2.3 | 
CC(C)N(CCC(CCN(C(C)C)C(C)C)(C(N)=O)c1ccccc1F)C(C)C | 200 | 1.52 | 3 | 87 | 6.1 | 90 | 15 | 
CC(C)N(CCC(CCN1CCOCC1)(C(N)=O)c1ccccc1Cl)C(C)C (configuration not stated) |  | 0.49 |  |  | 3.4 |  |  | minimal effective dose (Canis familiaris [16]): 11.7 mg/kg
CC(C)N(CCC(CCN1CCCCC1)(C(N)=O)c1ccccc1Cl)C(C)C (configuration not stated) [DISOBUTAMIDE] | >360 | 1.76 | 3.3 |  | 8.4 | 80 | 8.8 | Duration (Canis familiaris [10]): 210 min; Duration (Canis familiaris [13]): 75 min; Max reduction (Canis familiaris [4]): 100%; Reduction (Canis familiaris [14]): 49%; Onset of action (Canis familiaris [15]): 135 min; Onset of action (Canis familiaris [11]): 85 min; Max reduction (Canis familiaris [12]): 90%
CC(C)N(CCC(C(N)=O)(c1ccccc1)c1ccccn1)C(C)C (configuration not stated) [DISOPYRAMIDE] | 120 | 0.5 | 6.6 | 79 | 4.1 | 172 | 6.6 | Reduction (Canis familiaris [17]): inactive
CC(C)N(CCC(CCN(C(C)C)C(C)C)(C(N)=O)c1ccc(F)cc1)C(C)C | 147 | 1.19 | 2 | 92 | 6.7 | 88 | 12 | 
CC(C)N(CCC(CCN1CCOCC1)(C(N)=O)c1ccccc1)C(C)C (configuration not stated) | 52 |  | 5 | 84 | 5.6 | 285 | 7.6 | 
C=C[C@H]1CN2CC[C@H]1C[C@@H]2[C@@H](O)c1ccnc2ccc(OC)cc12 [QUINIDINE] | 110 | 0.4 | 13.5 | 57 | 2.2 | 110 |  | 
CC(C)N(CCC(CCN(C)C)(C(N)=O)c1ccccc1Cl)C(C)C (configuration not stated) |  | 0.31 | 7.5 |  | 2.7 |  | 4.7 | 
CC(C)c1ccc(C(CCN2CCCCC2)(CCN(C(C)C)C(C)C)C(N)=O)cc1 (configuration not stated) |  | 0.75 | 3 |  | 6.2 |  | 2 | 
CC(C)N(CCC(CCN(C(C)C)C(C)C)(C(N)=O)c1ccccc1)C(C)C | 200 | 1.31 | 5.5 | 89 | 6.5 | 200 | 3.4 | 
CC(C)N(CCC(CCC1CCCCC1)(C(N)=O)c1ccccc1Cl)C(C)C (configuration not stated) |  | 3.07 | 3.5 |  |  |  |  | selectivity ratio [8]: 6.1; Reduction (Canis familiaris [18]): Lethal
